Measured values from patent publication US12115393B2, “Methods for setting parameters of a neurostimulation device and associated devices” (INSTITUT NATIONAL DE LA SANTE ET DE LA RECHERCHE MEDICALE …, priority 2019, dated 2024).

Experiments:
Assay type in all cases: in vivo
[1] = system: unpredictable chronic mild stress (UCMS) mouse model; experiment: open-field task in UCMS mice; details: 15 mg/kg fluoxetine in drinking water from day 7, tested day 43, p<0.10
Protocol: (§1) From day 7 on, mice from the Veh (vehicle) and the Flx (fluoxetine) groups were chronically treated through drinking water respectively with water alone (n=12) or 15 mg/kg fluoxetine (n=12).
(§2) The main cohort of fifty-three mice followed the UCMS regimen from day 0 to day 35, as described previously. Briefly, mice were isolated in 24×11×12 cm cages without environmental enrichment and submitted to daily random socio-environmental stressors including: exposition to another mouse bedding, removal of sawdust, contention and light dark cycle perturbations.
Pharmacological treatments (15 mg/kg fluoxetine) were given from day 7 on to achieve chronic administration at week 5. […]
(§3) Behaviors were assessed during the dark phase of the light-dark cycle, i.e., the active, awoken phase for the animals. The effects of ultrasound neurostimulation were assessed against those of the fluoxetine treatment from day 38 to day 43 with 1) the nest-building test, 2) the reward-maze test and 3) the open field task.
3. […] The latency to reach the center area (d=10 cm) and the number of center-crossings were measured for up to 5 min. The movements of the mice were recorded and tracked with the software EthoVision XT (Noldus Information Technology, Netherlands) to generate individual heat maps, color-coded for position frequencies over the duration of the test.

[2] = system: unpredictable chronic mild stress (UCMS) mouse model; experiment: nest-building test in UCMS mice; details: 15 mg/kg fluoxetine chronically through drinking water from day 7, tested day 38, score max. 5
Protocol: as §1, §2
(§4) Pharmacological treatments (15 mg/kg fluoxetine) were given from day 7 on to achieve chronic administration at week 5. The chronic ultrasound neurostimulation treatment was given during the fifth week of the UCMS (stressors: 08:00-12:00 AM, treatment: 02:00 PM). […]
as §3
1. […] After 5 hours in standard condition, the state of the nest, built in cotton, was scored on a predefined scale. […]

[3] = system: unpredictable chronic mild stress (UCMS) mouse model; experiment: reward-maze test in UCMS mice
Protocol: as §1, §2, §4, §3
2. […] The latency to reach the reward and its consumption were measured for up to 5 min.

CNCCC(Oc1ccc(C(F)(F)F)cc1)c1ccccc1 (stereo not shown) [fluoxetine]
number of center-crossings [1]: did not significantly affect
nest-building score (ability to build a nest within 5 hours) [2]: no effect
consumption of the reward ([3]; 15 mg/kg fluoxetine in drinking water from day 7, tested day 40, Veh vs Flx p=0.033): modified
latency to travel across the apparatus and reach the food reward ([3]; 15 mg/kg fluoxetine in drinking water from day 7, tested day 40, Veh vs Flx p=0.042): decreased three-fold
